This note sets out measurements from ChEMBL document CHEMBL4354827, “Discovery of Novel, Potent, Brain-Permeable, and Orally Efficacious Positive Allosteric Modulator of α7 Nicotinic Acetylcholine Receptor [4-(5-(4-Chlorophenyl)-4-methyl-2-propionylthiophen-3-yl)benzenesulfonamide]: Structure-Activity Relationship and Preclinical Characterization” (J Med Chem, 2020).

The target in the assay is Neuronal acetylcholine receptor subunit alpha-7 (Homo sapiens, UniProt P36544). As to the kind of experiment: Positive allosteric modulatory activity against alpha7 nAChR in human IMR-32 cells assessed as potentiation of PNU-282987-induced Ca2+ […] at 1 uM by FLIPR assay relative to control. It is filed as cell-based.
Chain of Neuronal acetylcholine receptor subunit alpha-7 (P36544 whole entry): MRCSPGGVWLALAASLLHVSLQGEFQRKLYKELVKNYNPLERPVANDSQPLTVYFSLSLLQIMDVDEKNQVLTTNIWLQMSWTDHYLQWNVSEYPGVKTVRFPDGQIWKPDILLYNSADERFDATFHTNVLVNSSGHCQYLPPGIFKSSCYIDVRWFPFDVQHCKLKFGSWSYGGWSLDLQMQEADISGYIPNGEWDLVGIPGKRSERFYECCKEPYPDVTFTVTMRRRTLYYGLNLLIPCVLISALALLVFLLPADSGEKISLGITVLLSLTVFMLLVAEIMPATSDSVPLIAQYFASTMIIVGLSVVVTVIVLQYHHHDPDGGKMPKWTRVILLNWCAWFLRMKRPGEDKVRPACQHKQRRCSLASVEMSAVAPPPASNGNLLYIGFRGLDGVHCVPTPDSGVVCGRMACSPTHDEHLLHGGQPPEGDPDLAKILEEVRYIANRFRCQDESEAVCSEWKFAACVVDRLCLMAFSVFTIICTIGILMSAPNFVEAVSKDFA

As for `CCC(=O)c1sc(-c2ccoc2)c(C)c1-c1ccc(S(N)(=O)=O)cc1`, the fold change (FC) turned out to be 1. `CC(=O)c1sc(-c2ccc(Cl)cc2)c(C)c1-c1ccc(S(N)(=O)=O)cc1`: the fold change (FC) worked out at 7. For the compound `CCC(=O)c1sc(-c2ccc(C(C)(C)C)cc2)c(C)c1-c1ccc(S(N)(=O)=O)cc1`, the fold change (FC) worked out at 1. With `CCCN(CCO)C(=O)c1sc(-c2ccc(Cl)cc2)c(C)c1-c1ccc(S(N)(=O)=O)cc1`, the fold change (FC) came out at 1.

As to `Cc1c(-c2ccc(Cl)cc2)sc(C(=O)N(C)C)c1-c1ccc(S(N)(=O)=O)cc1`, the fold change (FC) was 1.

`CCC(=O)c1sc(-c2ccccc2)c(C)c1-c1ccc(S(N)(=O)=O)cc1`: the fold change (FC) was found to be 2.4. As for `CCC(=O)c1sc(-c2cccc(Cl)c2)c(C)c1-c1ccc(S(N)(=O)=O)cc1`, the fold change (FC) was 1. The result for `CCC(=O)c1sc(-c2ccc(C3CC3)cc2)c(C)c1-c1ccc(S(N)(=O)=O)cc1` reads 7. Turning to `CCC(=O)c1sc(-c2ccc(F)cc2)c(C)c1-c1ccc(S(N)(=O)=O)cc1`, the fold change (FC) was determined as 8.7. The result for `CCC(=O)c1sc(-c2ccncc2)c(C)c1-c1ccc(S(N)(=O)=O)cc1` reads 1; that for `CCC(=O)c1sc(-c2ccc(C(F)(F)F)cc2)c(C)c1-c1ccc(S(N)(=O)=O)cc1`, 15.3; that for `Cc1c(-c2ccc(Cl)cc2)sc(C(=O)N2CCCCC2)c1-c1ccc(S(N)(=O)=O)cc1`, 1. The result for `CCC(=O)c1sc(-c2ccccc2Cl)c(C)c1-c1ccc(S(N)(=O)=O)cc1` reads 1.

Take `CCC(=O)c1sc(-c2ccc(Cl)cc2Cl)c(C)c1-c1ccc(S(N)(=O)=O)cc1`: the fold change (FC) worked out at 12. The same measure for `CCOc1ccc(-c2sc(C(=O)CC)c(-c3ccc(S(N)(=O)=O)cc3)c2C)cc1`: 6. The same measure for `CCC(=O)c1sc(-c2ccc(N(C)C)cc2)c(C)c1-c1ccc(S(N)(=O)=O)cc1`: 19.
